The text below walks through data of ChEMBL document CHEMBL1201862, “PubChem BioAssay data set” (2004).

Active and inactive are the calls of the source. A value given as a limit tells only on which side of the number the result lay.

The target of assay [1] is Ribosomal protein S6 kinase beta-1 (Homo sapiens, UniProt P23443). The format is functional.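 Further: measured as one member of a kinome-wide profiling panel.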
The target in assay [2] is Serine/threonine-protein kinase 17A (Homo sapiens, UniProt Q9UEE5). In kind it is functional.
The target in another assay is SRSF protein kinase 1 (Homo sapiens, UniProt Q96SB4). The format is functional.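 Further: measured as one member of a kinome-wide kinase profiling panel.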
Assay [3] concerns the target Proto-oncogene tyrosine-protein kinase ROS (Homo sapiens, UniProt P08922). The format is functional.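 Further: ROS1 tested as one member of a kinome-wide kinase panel.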
Assay [4] addresses Serine/threonine-protein kinase Nek4 (Homo sapiens, UniProt P51957). In kind it is functional.
Assay [5] has as its target Dual specificity tyrosine-phosphorylation-regulated kinase 4 (Homo sapiens, UniProt Q9NR20). The format is functional.
For assay [6], the target named is Dual specificity tyrosine-phosphorylation-regulated kinase 1B (Homo sapiens, UniProt Q9Y463). The experiment in a line: Navigating the Kinome. Panel member name: DYRK1B. The format is functional.
A further assay concerns the target Aurora kinase B (Homo sapiens, UniProt Q96GD4). The format is functional.
Assay [7] has as its target Tyrosine-protein kinase Fyn (Homo sapiens, UniProt P06241). In kind it is functional.
The target in assay [8] is Serine/threonine-protein kinase DCLK1 (Homo sapiens, UniProt O15075). In kind it is functional.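 Further: affinity for DCLK1 (listed as DCAMKL1) measured as one member of a kinome-wide kinase profiling panel.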
Assay [9] concerns the target Mitogen-activated protein kinase kinase kinase kinase 4 (Homo sapiens, UniProt O95819). In kind it is functional.
The nature of assay [10]: NIH3T3 cell viability loss – ATP luminescence, mouse fibroblasts, counter-screen, dose response (AID 2010).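 Further: cells exposed to compound for about 90 hours before reading.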 In kind it is functional, cell-based.
For assay [11], the target named is T1, Sentrin-specific protease 6 (Homo sapiens, UniProt Q9GZR1).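 Further: Luminescence-based dose-response confirmatory assay of SENP6 inhibition, following up an ultra-high-throughput screen.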
T1 sequence (Q9GZR1 whole entry): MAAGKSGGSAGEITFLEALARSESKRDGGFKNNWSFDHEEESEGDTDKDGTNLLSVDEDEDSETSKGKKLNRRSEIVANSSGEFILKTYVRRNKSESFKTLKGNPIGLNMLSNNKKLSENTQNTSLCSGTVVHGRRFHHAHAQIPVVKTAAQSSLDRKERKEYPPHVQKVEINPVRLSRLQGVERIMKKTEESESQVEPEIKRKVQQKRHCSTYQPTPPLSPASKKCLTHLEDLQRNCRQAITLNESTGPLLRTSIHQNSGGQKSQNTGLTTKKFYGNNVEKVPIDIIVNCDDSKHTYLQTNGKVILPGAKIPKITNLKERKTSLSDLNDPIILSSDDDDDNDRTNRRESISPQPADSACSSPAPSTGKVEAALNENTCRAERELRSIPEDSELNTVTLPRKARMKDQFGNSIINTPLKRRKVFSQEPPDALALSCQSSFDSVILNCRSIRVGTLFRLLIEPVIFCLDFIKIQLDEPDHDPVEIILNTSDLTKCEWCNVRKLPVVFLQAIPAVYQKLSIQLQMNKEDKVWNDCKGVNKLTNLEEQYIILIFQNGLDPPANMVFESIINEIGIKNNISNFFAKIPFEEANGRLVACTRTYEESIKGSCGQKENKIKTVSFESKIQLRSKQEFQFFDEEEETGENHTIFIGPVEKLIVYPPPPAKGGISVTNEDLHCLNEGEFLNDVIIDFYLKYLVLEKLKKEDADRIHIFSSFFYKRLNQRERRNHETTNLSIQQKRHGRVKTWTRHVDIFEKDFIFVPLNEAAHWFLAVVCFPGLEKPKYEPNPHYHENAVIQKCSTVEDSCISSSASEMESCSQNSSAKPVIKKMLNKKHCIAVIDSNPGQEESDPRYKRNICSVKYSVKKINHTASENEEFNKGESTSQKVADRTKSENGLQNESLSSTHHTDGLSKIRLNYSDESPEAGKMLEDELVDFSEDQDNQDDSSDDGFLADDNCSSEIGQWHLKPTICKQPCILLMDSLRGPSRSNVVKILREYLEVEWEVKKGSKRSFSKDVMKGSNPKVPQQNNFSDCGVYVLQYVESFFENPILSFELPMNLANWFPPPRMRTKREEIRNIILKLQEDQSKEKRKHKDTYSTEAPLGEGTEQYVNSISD
In kind it is functional.

A further assay concerns the target T2, Caspase-7 (Homo sapiens, UniProt P55210).
T2 sequence (P55210 whole entry): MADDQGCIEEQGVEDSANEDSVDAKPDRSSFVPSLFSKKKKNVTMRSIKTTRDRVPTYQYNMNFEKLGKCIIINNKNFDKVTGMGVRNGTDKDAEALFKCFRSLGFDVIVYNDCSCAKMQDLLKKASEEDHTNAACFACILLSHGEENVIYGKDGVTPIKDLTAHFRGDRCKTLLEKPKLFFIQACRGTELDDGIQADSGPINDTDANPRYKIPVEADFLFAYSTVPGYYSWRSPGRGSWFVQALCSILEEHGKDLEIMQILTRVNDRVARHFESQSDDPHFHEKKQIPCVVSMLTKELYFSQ
The experiment in a line: caspase-7 enzyme inhibition, selectivity check – biochemical, DEVD-R110 fluorescence, cherry-pick, selectivity assay for caspase-6 inhibitor project, dose response (AID 743295). In kind it is functional.

Assay [12] has as its target T3, Sentrin-specific protease 8 (Homo sapiens, UniProt Q96LD8).
T3 sequence (Q96LD8 whole entry): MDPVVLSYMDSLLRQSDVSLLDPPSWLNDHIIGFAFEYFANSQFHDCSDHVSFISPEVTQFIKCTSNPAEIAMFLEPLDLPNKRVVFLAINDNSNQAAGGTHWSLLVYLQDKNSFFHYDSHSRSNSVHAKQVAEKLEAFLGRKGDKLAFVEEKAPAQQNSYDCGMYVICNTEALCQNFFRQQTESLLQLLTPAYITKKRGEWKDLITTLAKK
The experiment in a line: inhibition of human SENP8 cleavage activity – biochemical, luminescence, SAR follow-up (AID 504501). In kind it is functional.

Sequence of Mitogen-activated protein kinase kinase kinase kinase 4 (O95819 whole entry): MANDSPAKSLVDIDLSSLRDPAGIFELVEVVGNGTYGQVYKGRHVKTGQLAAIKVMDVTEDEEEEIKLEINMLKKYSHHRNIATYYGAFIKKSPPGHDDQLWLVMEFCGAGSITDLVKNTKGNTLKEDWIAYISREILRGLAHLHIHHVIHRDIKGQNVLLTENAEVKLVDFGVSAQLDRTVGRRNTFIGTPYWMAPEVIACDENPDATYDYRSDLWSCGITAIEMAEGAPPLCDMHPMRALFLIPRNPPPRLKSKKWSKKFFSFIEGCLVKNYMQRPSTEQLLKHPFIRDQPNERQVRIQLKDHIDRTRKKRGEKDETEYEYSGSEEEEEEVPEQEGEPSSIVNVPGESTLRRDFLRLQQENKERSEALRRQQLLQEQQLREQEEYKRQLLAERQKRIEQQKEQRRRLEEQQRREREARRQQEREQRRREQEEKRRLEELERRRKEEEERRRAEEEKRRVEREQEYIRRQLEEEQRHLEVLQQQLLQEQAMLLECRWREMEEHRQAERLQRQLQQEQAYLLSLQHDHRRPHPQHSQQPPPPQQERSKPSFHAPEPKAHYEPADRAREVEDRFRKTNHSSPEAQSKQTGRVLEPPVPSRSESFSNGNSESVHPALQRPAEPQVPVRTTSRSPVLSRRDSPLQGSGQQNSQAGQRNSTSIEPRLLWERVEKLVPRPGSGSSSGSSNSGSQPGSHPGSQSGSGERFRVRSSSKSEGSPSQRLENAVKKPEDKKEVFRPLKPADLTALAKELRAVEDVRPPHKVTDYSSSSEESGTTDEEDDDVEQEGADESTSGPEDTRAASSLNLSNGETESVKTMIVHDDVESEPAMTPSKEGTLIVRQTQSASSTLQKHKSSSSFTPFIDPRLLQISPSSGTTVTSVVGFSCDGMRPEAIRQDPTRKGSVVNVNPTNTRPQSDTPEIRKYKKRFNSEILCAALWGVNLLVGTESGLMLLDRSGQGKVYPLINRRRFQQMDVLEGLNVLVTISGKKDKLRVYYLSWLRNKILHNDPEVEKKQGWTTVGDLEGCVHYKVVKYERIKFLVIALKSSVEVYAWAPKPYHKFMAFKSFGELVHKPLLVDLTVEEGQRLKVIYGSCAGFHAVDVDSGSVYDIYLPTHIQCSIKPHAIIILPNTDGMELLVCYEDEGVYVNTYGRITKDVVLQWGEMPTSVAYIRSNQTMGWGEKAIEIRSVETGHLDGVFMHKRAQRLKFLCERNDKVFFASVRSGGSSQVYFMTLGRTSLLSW
Sequence of Dual specificity tyrosine-phosphorylation-regulated kinase 4 (Q9NR20 whole entry): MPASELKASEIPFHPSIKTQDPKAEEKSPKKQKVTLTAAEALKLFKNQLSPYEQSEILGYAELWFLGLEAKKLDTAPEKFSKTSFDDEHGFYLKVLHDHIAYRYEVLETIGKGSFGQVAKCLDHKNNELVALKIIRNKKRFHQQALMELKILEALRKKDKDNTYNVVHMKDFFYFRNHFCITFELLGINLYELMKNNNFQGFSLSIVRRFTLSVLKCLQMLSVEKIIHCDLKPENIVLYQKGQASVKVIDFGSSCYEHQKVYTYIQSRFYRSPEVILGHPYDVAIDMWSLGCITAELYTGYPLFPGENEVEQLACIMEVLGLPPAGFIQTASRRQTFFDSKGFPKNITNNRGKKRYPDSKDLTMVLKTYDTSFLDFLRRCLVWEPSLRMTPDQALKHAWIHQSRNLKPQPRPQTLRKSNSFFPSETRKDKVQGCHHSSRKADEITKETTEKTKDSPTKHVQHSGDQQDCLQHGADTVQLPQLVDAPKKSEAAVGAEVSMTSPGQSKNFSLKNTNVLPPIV
Sequence of Proto-oncogene tyrosine-protein kinase ROS (P08922 whole entry): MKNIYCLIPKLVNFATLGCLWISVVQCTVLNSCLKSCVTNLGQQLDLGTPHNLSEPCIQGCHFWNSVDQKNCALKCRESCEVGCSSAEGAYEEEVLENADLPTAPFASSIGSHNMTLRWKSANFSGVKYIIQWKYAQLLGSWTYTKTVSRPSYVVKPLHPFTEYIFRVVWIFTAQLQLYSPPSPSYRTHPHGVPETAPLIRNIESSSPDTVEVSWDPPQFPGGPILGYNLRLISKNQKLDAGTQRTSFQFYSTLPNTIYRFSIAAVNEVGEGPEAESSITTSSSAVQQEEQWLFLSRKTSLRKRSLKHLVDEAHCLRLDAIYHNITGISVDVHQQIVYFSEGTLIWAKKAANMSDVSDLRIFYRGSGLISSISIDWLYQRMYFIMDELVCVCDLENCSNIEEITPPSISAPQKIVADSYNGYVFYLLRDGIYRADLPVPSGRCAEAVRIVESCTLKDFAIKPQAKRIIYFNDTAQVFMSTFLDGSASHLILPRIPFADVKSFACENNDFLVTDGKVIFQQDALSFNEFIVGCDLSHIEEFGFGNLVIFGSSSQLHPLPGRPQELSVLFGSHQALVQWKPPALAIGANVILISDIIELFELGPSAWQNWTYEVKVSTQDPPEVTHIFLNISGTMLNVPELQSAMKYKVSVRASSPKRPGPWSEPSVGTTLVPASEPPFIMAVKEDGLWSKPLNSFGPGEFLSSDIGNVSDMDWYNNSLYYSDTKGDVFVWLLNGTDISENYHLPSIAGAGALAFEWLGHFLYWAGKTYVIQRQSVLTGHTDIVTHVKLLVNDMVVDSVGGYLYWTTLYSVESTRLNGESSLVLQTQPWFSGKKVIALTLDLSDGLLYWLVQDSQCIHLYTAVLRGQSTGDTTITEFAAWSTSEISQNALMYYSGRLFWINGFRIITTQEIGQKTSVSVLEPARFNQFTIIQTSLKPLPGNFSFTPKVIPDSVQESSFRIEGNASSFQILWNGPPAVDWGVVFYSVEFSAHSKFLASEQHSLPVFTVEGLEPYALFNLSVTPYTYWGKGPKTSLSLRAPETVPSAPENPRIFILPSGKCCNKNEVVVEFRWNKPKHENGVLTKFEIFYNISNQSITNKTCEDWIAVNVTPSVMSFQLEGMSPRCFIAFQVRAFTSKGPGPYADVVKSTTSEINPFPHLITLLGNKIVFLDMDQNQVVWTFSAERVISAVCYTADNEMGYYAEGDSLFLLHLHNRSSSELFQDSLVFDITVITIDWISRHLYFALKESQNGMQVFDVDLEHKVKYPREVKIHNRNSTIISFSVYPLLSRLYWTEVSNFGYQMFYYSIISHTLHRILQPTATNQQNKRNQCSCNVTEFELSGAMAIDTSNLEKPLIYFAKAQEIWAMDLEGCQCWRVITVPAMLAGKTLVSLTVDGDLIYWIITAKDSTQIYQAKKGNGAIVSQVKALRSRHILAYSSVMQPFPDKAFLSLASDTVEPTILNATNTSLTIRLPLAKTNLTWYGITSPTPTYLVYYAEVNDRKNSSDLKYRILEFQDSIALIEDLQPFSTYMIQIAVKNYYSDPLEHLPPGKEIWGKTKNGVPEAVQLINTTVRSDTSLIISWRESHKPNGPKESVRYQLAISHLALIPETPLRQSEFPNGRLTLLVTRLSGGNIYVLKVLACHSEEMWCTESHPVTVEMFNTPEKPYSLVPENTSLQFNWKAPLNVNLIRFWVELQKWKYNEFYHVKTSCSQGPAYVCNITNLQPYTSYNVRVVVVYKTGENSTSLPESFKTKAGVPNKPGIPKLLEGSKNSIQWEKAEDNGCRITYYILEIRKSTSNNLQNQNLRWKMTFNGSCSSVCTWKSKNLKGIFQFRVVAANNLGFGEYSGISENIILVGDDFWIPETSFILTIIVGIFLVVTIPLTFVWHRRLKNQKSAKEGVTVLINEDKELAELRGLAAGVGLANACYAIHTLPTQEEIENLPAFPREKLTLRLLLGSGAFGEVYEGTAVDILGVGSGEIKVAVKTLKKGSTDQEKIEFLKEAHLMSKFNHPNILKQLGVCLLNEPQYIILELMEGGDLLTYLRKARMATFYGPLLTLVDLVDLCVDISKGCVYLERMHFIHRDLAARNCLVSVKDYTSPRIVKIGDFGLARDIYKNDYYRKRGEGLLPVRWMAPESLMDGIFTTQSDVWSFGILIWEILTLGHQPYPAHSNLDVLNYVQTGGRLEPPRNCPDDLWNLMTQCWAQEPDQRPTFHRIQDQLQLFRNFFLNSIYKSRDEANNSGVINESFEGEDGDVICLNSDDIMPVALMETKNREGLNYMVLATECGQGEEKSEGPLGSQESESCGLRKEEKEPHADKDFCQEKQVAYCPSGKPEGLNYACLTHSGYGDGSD
Sequence of Ribosomal protein S6 kinase beta-1 (P23443 whole entry): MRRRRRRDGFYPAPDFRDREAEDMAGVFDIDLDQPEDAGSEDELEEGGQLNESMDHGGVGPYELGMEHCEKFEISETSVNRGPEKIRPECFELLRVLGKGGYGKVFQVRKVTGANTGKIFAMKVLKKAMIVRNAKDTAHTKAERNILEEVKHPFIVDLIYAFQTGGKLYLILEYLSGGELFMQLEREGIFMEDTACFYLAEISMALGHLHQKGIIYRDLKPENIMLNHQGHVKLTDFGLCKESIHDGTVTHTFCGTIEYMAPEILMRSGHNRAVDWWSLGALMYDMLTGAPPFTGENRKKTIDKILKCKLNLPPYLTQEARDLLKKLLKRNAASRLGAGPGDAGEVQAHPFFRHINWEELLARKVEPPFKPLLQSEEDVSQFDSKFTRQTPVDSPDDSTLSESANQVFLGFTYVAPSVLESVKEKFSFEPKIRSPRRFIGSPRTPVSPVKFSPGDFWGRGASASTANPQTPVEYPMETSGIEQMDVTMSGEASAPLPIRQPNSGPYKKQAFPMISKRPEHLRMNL
Sequence of Aurora kinase B (Q96GD4 whole entry): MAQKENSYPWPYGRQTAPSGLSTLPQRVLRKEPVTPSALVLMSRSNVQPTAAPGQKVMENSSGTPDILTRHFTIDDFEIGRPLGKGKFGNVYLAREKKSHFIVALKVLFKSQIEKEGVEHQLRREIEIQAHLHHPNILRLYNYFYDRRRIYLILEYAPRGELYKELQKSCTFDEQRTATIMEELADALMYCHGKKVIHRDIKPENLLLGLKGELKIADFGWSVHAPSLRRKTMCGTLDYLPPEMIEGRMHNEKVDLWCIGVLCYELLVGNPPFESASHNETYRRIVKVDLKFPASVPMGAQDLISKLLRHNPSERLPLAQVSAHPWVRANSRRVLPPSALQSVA

As to `CC(N)C1CCC(C(=O)Nc2ccnc3[nH]ccc23)CC1` (stereo not given), the Ki in assay [1] was 0.501 µM (active); in assay [2] it was 3.98 µM (active); at SRSF protein kinase 1, > 7.94 µM (inactive); in assay [3] it was > 2 µM (inactive); in [4], > 6.31 µM (inactive); in assay [5] it was > 7.94 µM (inactive). Moreover, the Ki was 0.158 µM (active) in [6]; 1 µM (active) at Aurora kinase B; > 3.98 µM (inactive) in [7]; > 10 µM (inactive) in assay [8]; > 2.51 µM (inactive) in [9].

As to `Cc1c(NC(=O)C(C)OC(=O)c2ccc([N+](=O)[O-])s2)c(=O)n(-c2ccccc2)n1C` (stereo not given), the EC50 in assay [10] was > 60 µM (not active). Further, the IC50 in assay [11] is 7.32 µM (active). In addition, the AC50 on Caspase-7 is 17.5 µM (active).

For `COc1cc(Br)c(C(=O)c2nccc3cc(OC)c(OC)cc23)cc1OC`, the IC50 in assay [12] was 35.6 µM (active).

The Ki is a measure of affinity in units of concentration, obtained from inhibition or displacement. As a reminder, the EC50 is the concentration that produces a half-maximal response. Low readings indicate greater potency, high ones weaker potency. One may read the IC50 as the point on the concentration scale where inhibition reaches its midpoint. One may read the AC50 as the concentration at which the activity in the assay is half-maximal.
